In patent US20230331792A1, “NEW MULTI-FUNCTIONAL OLIGOPEPTIDES” (ENLITISA (SHANGHAI) PHARMACEUTICAL CO., LTD., priority 2019, published 2023):
Square brackets hold non-standard residues; d marks the D form. Ends that are not written are not given here. Dopa = N[C@@H](Cc1ccc(O)c(O)c1)C(=O)O; Hyp = O=C(O)[C@@H]1C[C@@H](O)CN1

Tests used:
[1] = tested on: Sprague Dawley (SD) rats; assay: Croton oil-induced anal swelling model in rats I (Evans blue content); assay type: in vivo; conditions: gel 0.5 and 1 mg/g, 200 μL twice a day for three days
Protocol: A croton oil mixture was prepared by mixing one part distilled water, four parts of pyridine (Nanjing Chemical Reagent Co., Ltd.), five parts of ether (China Pharmaceutical Group Chemical Reagents Co., Ltd.) and ten parts of 6% croton oil (Shanghai Yuanye Biotechnology Co., Ltd.) ether solution.
6-8 weeks old Sprague Dawley (SD) rats with average body weights of 180-220 g were supplied by Changzhou Cvens Experimental Animal Co. Ltd. (Changzhou, Jiangsu Province, China), half male and half female. Prior to any experiments being conducted, rats were housed under standardized conditions (at a constant temperature of 22±2° C., with alternating 12-hour periods of light and darkness) and were fed on a standard mouse diet with water, for about a week.
56 rats were randomly divided into 7 groups (as shown in Table 11 below), with 8 rats in each group. Compound A, Compound B and MaYinglong hemorrhoids ointment were dissolved at concentrations indicated in Table 11 below (L=low dose, M=medium dose, H=high dose).
The rats were anesthetized by isoflurane (China Pharmaceutical Group Chemical Reagents Co., Ltd.) inhalation. 75% alcohol cotton ball was used to disinfect the skin around the anus. […]
All samples were transferred to a 55° C. water bath or a heat block. […] Absorbance was measured at 610 nm, using 500 μL of formamide as a blank. […]

[2] = tested on: C57BL/6 mice; assay: Acute wound model (full-thickness skin wound); assay type: in vivo; conditions: topical 50 μL/wound once daily Day 0 to Day 7; 1.65, 16.45, 164.5 μg/wound/day
Protocol: 6-8 weeks old male C57BL/6 mice were supplied by Changzhou Cvens Experimental Animal Co. Ltd. (Changzhou, Jiangsu Province, China). Prior to any experiments being conducted, mice were housed under standardized conditions at a constant temperature of 22±2° C., with alternating 12-hour periods of light and darkness, and were fed on a standard mouse diet with water, for about a week.
General anesthesia was induced using intraperitoneal administration of 3% chloral hydrate (1 mL/10 g of body weight). The hair on the back was shaved by a baby hair shaver and depilated with cream. The skin area was wiped and sterilized with 75% alcohol twice.
A 12 mm EMS skin biopsy punch (Electron Microscopy Sciences, P.O. Box 550, 1560 Industry Road, Hatfield, PA 19440) was used to make two round wounds on the midline of the back. The two wounds were tangential and the skin between the circles was cut along the upper and lower tangents. Scissors were used to trim the wound. The full thickness of skin was removed to reach the fascia. The wound was oval shape and was left open without suture. […]
Photographs were taken of each wound every other day from Day 0. Photos were scanned into a computer, and wound areas calculated using ImageJ image analysis software (National Institute of Health).
The unhealed wound area was expressed as a percentage of the original wound area: […]

Substance	inflammatory swelling, EB content in rectal and anal tissues (FIG. 5) [1]	unhealed wound rate / wound healing (FIG. 1) [2]
{[(Ala-Lys-Pro-Ser-Tyr-Hyp-Hyp-Thr-DOPA-Lys)2-Lys]2-Lys}2-Lys (AKPSY[Hyp][Hyp]T[Dopa]KKKK; also: branched lysine dendrimer {[(peptide)2-Lys]2-Lys}2-Lys) [Compound B]	may reduce inflammatory swelling caused by croton oil application	significantly improve wound healing
{[(Dopa-Ala-Lys-Pro-Ser-Tyr-Hyp-Hyp-Thr-Tyr-Lys)2-Lys]2-Lys}2-Lys ([Dopa]AKPSY[Hyp][Hyp]TYKKKK; also: branched lysine dendrimer {[(peptide)2-Lys]2-Lys}2-Lys) [Compound A]	may reduce inflammatory swelling caused by croton oil application	significantly improve wound healing
